Reference: patent publication US8871753B2, “Macrocyclic compounds and their use as kinase inhibitors” (Incyte Corporation, priority 2008, dated 2014)

Assays:
Format in all cases: biochemical
[1] = target: T1, human JAK2 (a.a. 828-1132) (Homo sapiens, UniProt O60674); experiment: In vitro JAK kinase assay (HTRF, phosphorylation of a biotinylated peptide), JAK2; conditions: Table B1
T1 construct: JAK2 (a.a. 828-1132); His tag (N); made in house; host or cells: insect cells (baculovirus)
Procedure, shortened: (§1)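 Phosphorylation of a biotinylated peptide by the JAK kinase domain, detected by HTRF with Eu-Py20 and SA-APC. ATP was 90 μM for JAK1, 30 μM for JAK2 and 3 μM for JAK3. Reactions ran 1 h at room temperature and were stopped with EDTA, followed by 40 min antibody binding.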

[2] = target: T2, human JAK1 (a.a. 837-1142) (Homo sapiens, UniProt P23458); experiment: In vitro JAK kinase assay (HTRF, phosphorylation of a biotinylated peptide), JAK1; conditions: Table B1; read-out: JAK1 IC50
T2 construct: human JAK1 (a.a. 837-1142); His tag (N); made in house; host or cells: insect cells (baculovirus)
Procedure, shortened: as §1

[3] = target: T3, Recombinant Human Anaplastic Lymphoma Kinase (Homo sapiens, UniProt Q9UM73); experiment: ALK HTRF kinase assay; conditions: percentage inhibition of the example compound at a concentration of 500 nM or 1 mM (not specified which)
T3 construct: purchased Invitrogen, Carlsbad, Calif
Procedure, shortened: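 Biotinylated peptide substrate, recombinant human ALK; detection via europium-chelate antibody to phosphotyrosine paired with streptavidin-APC. Potency expressed as IC50 from four-parameter curve fitting.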

[4] = target: TYK2 (Homo sapiens, UniProt P29597); experiment: TYK2 kinase inhibition (Table A1); conditions: Table B1
[5] = target: T4, human JAK3 (a.a. 781-1124) (Homo sapiens, UniProt P52333); experiment: In vitro JAK kinase assay (HTRF, phosphorylation of a biotinylated peptide), JAK3; conditions: Table B1
T4 construct: JAK3 (a.a. 781-1124); His tag (N); made in house; host or cells: insect cells (baculovirus)
Procedure, shortened: as §1

T3 sequence (Q9UM73 19-1620): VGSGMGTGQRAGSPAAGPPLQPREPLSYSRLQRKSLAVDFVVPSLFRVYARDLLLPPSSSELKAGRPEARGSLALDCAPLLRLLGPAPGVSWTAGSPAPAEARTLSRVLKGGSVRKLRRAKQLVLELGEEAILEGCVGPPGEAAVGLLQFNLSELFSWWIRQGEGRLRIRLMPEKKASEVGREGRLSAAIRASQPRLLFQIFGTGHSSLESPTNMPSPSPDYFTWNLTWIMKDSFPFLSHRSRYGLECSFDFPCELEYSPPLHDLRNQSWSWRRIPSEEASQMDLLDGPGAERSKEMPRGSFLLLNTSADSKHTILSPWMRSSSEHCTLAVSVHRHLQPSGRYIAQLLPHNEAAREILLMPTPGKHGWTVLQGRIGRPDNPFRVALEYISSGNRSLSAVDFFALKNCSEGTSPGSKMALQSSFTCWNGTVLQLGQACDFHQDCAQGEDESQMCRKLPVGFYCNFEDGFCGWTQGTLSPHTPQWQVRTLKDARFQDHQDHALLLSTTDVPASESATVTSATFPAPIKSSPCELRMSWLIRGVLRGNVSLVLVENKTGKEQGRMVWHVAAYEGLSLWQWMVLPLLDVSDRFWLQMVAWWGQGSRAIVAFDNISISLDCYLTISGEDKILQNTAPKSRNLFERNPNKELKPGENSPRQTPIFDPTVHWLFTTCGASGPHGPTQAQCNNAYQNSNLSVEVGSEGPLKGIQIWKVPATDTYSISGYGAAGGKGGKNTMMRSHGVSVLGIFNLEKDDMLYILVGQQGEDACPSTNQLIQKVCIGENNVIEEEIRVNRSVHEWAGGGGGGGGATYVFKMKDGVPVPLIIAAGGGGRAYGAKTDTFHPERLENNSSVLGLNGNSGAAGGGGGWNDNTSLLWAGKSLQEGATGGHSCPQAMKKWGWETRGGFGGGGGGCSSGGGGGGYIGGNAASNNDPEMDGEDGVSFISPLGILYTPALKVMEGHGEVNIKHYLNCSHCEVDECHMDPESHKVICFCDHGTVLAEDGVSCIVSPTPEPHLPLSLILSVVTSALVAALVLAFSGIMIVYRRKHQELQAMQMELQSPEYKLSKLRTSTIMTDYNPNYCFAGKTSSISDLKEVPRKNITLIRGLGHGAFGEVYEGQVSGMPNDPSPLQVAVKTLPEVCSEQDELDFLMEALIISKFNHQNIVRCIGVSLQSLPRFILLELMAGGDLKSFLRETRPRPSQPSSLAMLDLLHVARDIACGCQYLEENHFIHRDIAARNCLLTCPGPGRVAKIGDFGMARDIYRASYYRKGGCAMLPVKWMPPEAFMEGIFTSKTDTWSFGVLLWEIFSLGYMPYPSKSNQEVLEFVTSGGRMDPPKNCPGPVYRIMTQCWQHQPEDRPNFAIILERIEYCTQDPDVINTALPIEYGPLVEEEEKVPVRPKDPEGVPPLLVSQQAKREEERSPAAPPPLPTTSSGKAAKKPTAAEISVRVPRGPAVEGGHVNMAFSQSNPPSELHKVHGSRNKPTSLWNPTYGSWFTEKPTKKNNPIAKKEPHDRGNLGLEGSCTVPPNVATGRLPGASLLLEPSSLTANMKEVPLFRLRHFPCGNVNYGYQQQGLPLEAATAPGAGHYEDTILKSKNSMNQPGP
T1 sequence (O60674 828-1132): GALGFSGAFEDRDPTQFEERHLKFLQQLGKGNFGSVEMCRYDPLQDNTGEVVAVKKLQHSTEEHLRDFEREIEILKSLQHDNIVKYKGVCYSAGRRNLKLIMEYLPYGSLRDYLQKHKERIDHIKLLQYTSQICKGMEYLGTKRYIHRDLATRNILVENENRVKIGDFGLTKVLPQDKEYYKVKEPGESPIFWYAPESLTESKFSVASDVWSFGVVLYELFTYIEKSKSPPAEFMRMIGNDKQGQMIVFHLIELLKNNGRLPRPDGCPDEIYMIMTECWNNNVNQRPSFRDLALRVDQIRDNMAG
T4 sequence (P52333 781-1124): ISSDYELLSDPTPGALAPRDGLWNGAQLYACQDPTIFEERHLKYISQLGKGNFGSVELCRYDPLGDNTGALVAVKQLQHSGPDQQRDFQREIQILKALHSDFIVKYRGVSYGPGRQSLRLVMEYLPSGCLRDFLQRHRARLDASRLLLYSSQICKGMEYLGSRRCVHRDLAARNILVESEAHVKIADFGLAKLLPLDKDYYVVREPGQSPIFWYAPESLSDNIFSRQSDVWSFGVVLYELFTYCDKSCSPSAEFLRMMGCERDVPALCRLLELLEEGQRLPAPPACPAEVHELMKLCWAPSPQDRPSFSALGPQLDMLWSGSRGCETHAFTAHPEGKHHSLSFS
T2 sequence (P23458 849-1154): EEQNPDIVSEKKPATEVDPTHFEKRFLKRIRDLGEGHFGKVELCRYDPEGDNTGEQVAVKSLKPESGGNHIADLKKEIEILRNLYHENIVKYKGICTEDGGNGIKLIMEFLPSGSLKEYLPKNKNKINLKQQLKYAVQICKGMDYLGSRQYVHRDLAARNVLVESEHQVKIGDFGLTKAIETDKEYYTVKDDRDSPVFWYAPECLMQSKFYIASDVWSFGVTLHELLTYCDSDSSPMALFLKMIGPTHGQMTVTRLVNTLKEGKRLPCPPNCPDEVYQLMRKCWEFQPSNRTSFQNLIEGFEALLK
Sequence of TYK2 (P29597 whole entry): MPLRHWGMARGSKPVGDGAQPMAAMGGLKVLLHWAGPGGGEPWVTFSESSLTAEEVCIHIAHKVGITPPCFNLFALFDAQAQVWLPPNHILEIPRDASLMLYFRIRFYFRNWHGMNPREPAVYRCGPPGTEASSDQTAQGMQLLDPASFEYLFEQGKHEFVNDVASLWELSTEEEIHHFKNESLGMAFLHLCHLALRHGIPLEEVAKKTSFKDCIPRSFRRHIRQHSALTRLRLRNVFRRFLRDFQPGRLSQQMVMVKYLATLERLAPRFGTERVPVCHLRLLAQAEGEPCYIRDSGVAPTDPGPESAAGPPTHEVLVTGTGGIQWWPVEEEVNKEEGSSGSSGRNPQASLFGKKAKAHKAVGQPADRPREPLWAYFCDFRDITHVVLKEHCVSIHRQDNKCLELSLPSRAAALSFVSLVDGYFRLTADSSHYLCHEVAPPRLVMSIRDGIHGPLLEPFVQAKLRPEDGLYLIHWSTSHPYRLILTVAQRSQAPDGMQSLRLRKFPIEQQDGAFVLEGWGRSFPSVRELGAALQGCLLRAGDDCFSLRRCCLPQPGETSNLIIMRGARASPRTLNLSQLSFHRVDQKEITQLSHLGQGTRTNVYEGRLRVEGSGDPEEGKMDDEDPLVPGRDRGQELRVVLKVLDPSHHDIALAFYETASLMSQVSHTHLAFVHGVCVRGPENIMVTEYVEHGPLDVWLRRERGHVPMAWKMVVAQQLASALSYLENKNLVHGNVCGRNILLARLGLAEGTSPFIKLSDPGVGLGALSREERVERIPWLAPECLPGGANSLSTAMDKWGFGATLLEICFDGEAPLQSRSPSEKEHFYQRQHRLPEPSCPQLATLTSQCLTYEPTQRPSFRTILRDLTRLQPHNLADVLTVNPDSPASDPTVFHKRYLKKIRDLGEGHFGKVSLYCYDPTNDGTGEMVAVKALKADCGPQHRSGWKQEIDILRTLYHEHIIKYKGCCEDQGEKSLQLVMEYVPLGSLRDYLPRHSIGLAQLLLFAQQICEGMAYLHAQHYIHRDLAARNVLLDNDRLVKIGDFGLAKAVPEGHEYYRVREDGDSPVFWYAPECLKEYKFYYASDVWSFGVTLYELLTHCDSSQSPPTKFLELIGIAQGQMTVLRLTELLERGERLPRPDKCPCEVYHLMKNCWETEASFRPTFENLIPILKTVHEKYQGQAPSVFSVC

| SMILES | IC50 [1] [nM] | IC50 [2] [nM] | ALK % of inhibition at a concentration of 500 nM or 1 mM [3] [%] | IC50 [4] [nM] | IC50 [5] [nM] |
| --- | --- | --- | --- | --- | --- |
| N#Cc1ccc(N2CCN(C(=O)Nc3ccc4cc3CCc3cncc(c3)Nc3ncc(Cl)c(n3)N4)CC2)cc1 [Example B303, N-[6-Chloro-2,4,8,18,22-pentaazatetracyclo[14.3.1.1(3,7).1(9,13)]docosa-1(20),3(22),4,6,9(21),10,12,16,18-nonaen-12-yl]-4-(4-cyanophenyl)piperazine-1-carboxamide tris(trifluoroacetate)] | 161 | 19 | 81 | 36 | > 400 |
| COc1cccc(N2CCN(C(=O)Nc3ccc4cc3CCc3cncc(c3)Nc3ncc(Cl)c(n3)N4)CC2)c1 [Example B304, N-[6-Chloro-2,4,8,18,22-pentaazatetracyclo[14.3.1.1(3,7).1(9,13)]docosa-1(20),3(22),4,6,9(21),10,12,16,18-nonaen-12-yl]-4-(3-methoxyphenyl)piperazine-1-carboxamide tris(trifluoroacetate)] | 300 | 58 | 67 | 90 | > 400 |
| O=C(Nc1ccc2cc1CCc1cncc(c1)Nc1ncc(Cl)c(n1)N2)N1CCN(c2ccccc2Cl)CC1 [Example B305, N-[6-Chloro-2,4,8,18,22-pentaazatetracyclo[14.3.1.1(3,7).1(9,13)]docosa-1(20),3(22),4,6,9(21),10,12,16,18-nonaen-12-yl]-4-(2-chlorophenyl)piperazine-1-carboxamide bis(trifluoroacetate)] | 148 | 15 | 79 | 38 | > 400 |
| O=C(Nc1ccc2cc1CCc1cncc(c1)Nc1ncc(Cl)c(n1)N2)N1CCN(c2cccc(Cl)c2)CC1 [Example B306, N-[6-Chloro-2,4,8,18,22-pentaazatetracyclo[14.3.1.1(3,7).1(9,13)]docosa-1(20),3(22),4,6,9(21),10,12,16,18-nonaen-12-yl]-4-(3-chlorophenyl)piperazine-1-carboxamide tris(trifluoroacetate)] | 265 | 27 | 72 | 43 | > 400 |
| O=C(Nc1ccc2cc1CCc1cncc(c1)Nc1ncc(Cl)c(n1)N2)N1CCN(c2ccc(Cl)cc2)CC1 [Example B307, N-[6-Chloro-2,4,8,18,22-pentaazatetracyclo[14.3.1.1(3,7).1(9,13)]docosa-1(20),3(22),4,6,9(21),10,12,16,18-nonaen-12-yl]-4-(4-chlorophenyl)piperazine-1-carboxamide tris(trifluoroacetate)] | 217 | 36 | 74 | 66 | > 400 |
| Cc1cncc(N2CCN(C(=O)Nc3ccc4cc3CCc3cncc(c3)Nc3ncc(Cl)c(n3)N4)CC2)n1 [Example B308, N-[6-Chloro-2,4,8,18,22-pentaazatetracyclo[14.3.1.1(3,7).1(9,13)]docosa-1(20),3(22),4,6,9(21),10,12,16,18-nonaen-12-yl]-4-(6-methylpyrazin-2-yl)piperazine-1-carboxamide tris(trifluoroacetate)] | 83 | 16 | 79 | 34 | > 400 |
| O=C(Nc1ccc2cc1CCc1cncc(c1)Nc1ncc(Cl)c(n1)N2)N1CCN(c2ncccn2)CC1 [Example B309, N-[6-Chloro-2,4,8,18,22-pentaazatetracyclo[14.3.1.1(3,7).1(9,13)]docosa-1(20),3(22),4,6,9(21),10,12,16,18-nonaen-12-yl]-4-pyrimidin-2-ylpiperazine-1-carboxamide tris(trifluoroacetate)] | 133 | 21 | 68 | 67 | > 400 |
